# Laboratory results published in article PMC3565020 (ChemMedChem, 2012).
# Values joined by “and” are separate entries in the source; they are usually repeats but may differ in a detail not shown here. Equal entries are not always repeated. Where two headings read alike, the source gives them in different places.
# Key:
# [1] = test system: L. donovani axenic amastigotes; assay: L. donovani axenic amastigote viability, 72 hour Alamar blue assay; format: cell-based, Leishmania donovani
# [2] = test system: LU-1 human lung carcinoma cell line; assay: Sulforhodamine; format: cell-based; details: for Cytotoxicity LU-1 CC50 / CC50: LU-1 human lung carcinoma, SRB; for CC50: read-out: Cytotoxicity LU-1 CC50
# [3] = test system: L. donovani promastigotes; assay: L. donovani promastigote viability, 72 hour Alamar blue assay; format: cell-based, Leishmania donovani; details: for IC50: read-out: L. donovani Promastigotes IC50
# J-774 murine macrophages = assay: Cytotoxicity against murine macrophage cells; details: for Cytotoxicity J-774 murine macrophages CC50 / CC50: J-774, Alamar blue; for CC50: read-out: Cytotoxicity J-774 murine macrophages CC50
# Sulforhodamine = format: cell-based, human; details: human
# VERO cells = details: previous report; cited from earlier work
# [4] = Cytotoxicity against murine macrophage cells; details: mouse
# [5] = 72 hour Alamar blue, pH 5.5, 37°C
# [6] = read-out: L. donovani Axenic amastigotes IC50, 72 hour Alamar blue, pH 5.5, 37°C
Compound,"L. donovani Axenic amastigotes IC50 [1, 5]",Cytotoxicity LU-1 CC50 [2],"L. donovani Promastigotes IC50 ([3]; 72 hour Alamar blue, 26°C)",Cytotoxicity J-774 murine macrophages CC50 (J-774 murine macrophages),CC50 (J-774 murine macrophages),"IC50 [1, 6]",CC50 [2],"IC50 ([3]; 72 hour Alamar blue, 26°C)",CC50 (Sulforhodamine; LU-1 lung carcinoma cells),other results
O=Cc1cc2c(cc1O)[nH]c1ccc([N+](=O)[O-])cc12 [Compound 6f],NA (NA (Not active): IC50 > 40 μg/mL),NC (NC (Noncytotoxic): CC50 > 40 μg/mL),NA (NA (Not active): IC50 > 40 μg/mL),20.0 mg/L,78 µM,–,–,–,–,–
O=Cc1cc2c(cc1O)[nH]c1ccc(OC(F)(F)F)cc12 [Compound 6d],2.1 mg/L,45 mg/L,3.7 mg/L,8.0 mg/L,27.1 µM,7.1 µM,152 µM,12.6 µM,–,–
"COc1ccc2[nH]c3cc(O)c(C=O)cc3c2c1 [Compound 6a, lansine]",–,–,–,–,–,–,–,–,–,"IC50 ([1]; Leishmania donovani, 72 h, pH 5.5, read-out: L. donovani Axenic amastigotes IC50): 11 µg/mL and 45.6 µM; SI-1 (Selectivity Index-1) = CC50 (LU-1)/IC50 (amastigotes) ([2]; LU-1 vs axenic amastigotes): 2; CC50 (Sulforhodamine): 16.5 µg/mL and 68.4 µM; CC values in VERO cells (VERO cells): > 102 µg/mL; IC50 ([3]; Leishmania donovani, 72 h): 89.1 µM and 21.5 µg/mL; CC50 [4]: 20 µg/mL and 82.9 µM; SI-2 (Selectivity Index-2) = CC50 (J-774)/IC50 (amastigotes) (J-774 murine macrophages; J-774 vs axenic amastigotes): 2"
COc1ccc2[nH]c3cc(O)c(C)cc3c2c1 [Compound 13],11.5 mg/L,30 mg/L,17.7 mg/L,20 mg/L,88.1 µM,50.6 µM,132 µM,78 µM,–,–
Cn1c2ccccc2c2ccccc21 [Compound 16],NA (NA (Not active): IC50 > 40 μg/mL),NC (NC (Noncytotoxic): CC50 > 40 μg/mL),37.0 mg/L,NC (NC (Noncytotoxic): CC50 > 40 μg/mL),–,–,–,204 µM,–,–
COc1ccc2[nH]c3cc(O)c(CO)cc3c2c1 [Compound 11],10.0 mg/L,> 60 mg/L,NA (NA (Not active): IC50 > 40 μg/mL),NC (NC (Noncytotoxic): CC50 > 40 μg/mL),–,41.1 µM,> 247 µM,–,–,–
"N=C(N)c1ccc(OCCCCCOc2ccc(C(=N)N)cc2)cc1 [Pentamidine, reference compound]",–,–,–,–,–,2.9 µM,–,3.5 µM,0.5 µg/mL and 1.5 µM,–
"COc1ccc2c(c1)c1cc(C=O)c(OC)cc1n2C [Compound 9, 2,6-dimethoxy-9-methyl-9H-carbazole-3-carbaldehyde]",–,–,–,–,–,–,–,–,> 40 mg/L,CC50 ([4]; J774 macrophage cells): > 40 mg/L
"COc1ccc2[nH]c3cc(OC)c(C=O)cc3c2c1 [Compound 8, 2,6-Dimethoxy-9H-carbazole-3-carbaldehyde]",–,–,–,–,–,–,–,–,> 40 mg/L,CC50 ([4]; J774 macrophage cells): > 40 mg/L
COc1ccc2[nH]c3ccc(C=O)cc3c2c1 [Compound 5g],NA^[g] (NA (Not active): IC50 > 40 μg/mL),NC^[h] (NC (Noncytotoxic): CC50 > 40 μg/mL),27 mg/L,NC (NC (Noncytotoxic): CC50 > 40 μg/mL),–,–,–,120 µM,–,CC values in VERO cells (VERO cells): > 102 µg/mL
"C[C@@H]1[C@H](O)[C@@H](C)/C=C/C=C/C=C/C=C/C=C/C=C/C=C/[C@H](O[C@@H]2O[C@H](C)[C@@H](O)[C@H](N)[C@@H]2O)C[C@@H]2O[C@](O)(C[C@@H](O)C[C@@H](O)[C@H](O)CC[C@@H](O)C[C@@H](O)CC(=O)O[C@H]1C)C[C@H](O)[C@H]2C(=O)O [Amphotericin B, reference compound]",–,–,–,–,–,–,–,–,> 40 mg/L,–
CCn1c2ccccc2c2cc(C=O)ccc21 [Compound 14],NA (NA (Not active): IC50 > 40 μg/mL),25 mg/L,38.6 mg/L,21 mg/L,94.1 µM,–,112 µM,173 µM,–,–
Oc1ccc2c(c1)[nH]c1ccccc12 [Compound 15],10.0 mg/L,40 mg/L,28.5 mg/L,NC (NC (Noncytotoxic): CC50 > 40 μg/mL),–,54.6 µM,218 µM,156 µM,–,–
"O=Cc1cc2c(cc1O)[nH]c1ccc(O)cc12 [Compound 7, 2,6-Dihydroxy-9H-carbazole-3-carbaldehyde]",–,–,–,–,–,–,–,–,> 40 mg/L,CC50 ([4]; J774 macrophage cells): 32 µg/mL and 141 µM
O=Cc1cc2c(cc1O)[nH]c1ccccc12 [Compound 6b],11.0 mg/L,45 mg/L,35.4 mg/L,21 mg/L,99.4 µM,52 µM,213 µM,168 µM,–,–
O=Cc1cc2c(cc1O)[nH]c1ccc(C(F)(F)F)cc12 [Compound 6c],6.0 mg/L,21 mg/L,7.3 mg/L,9.8 mg/L,35.1 µM,21.5 µM,75.2 µM,26.2 µM,–,–
